Test results published in US10590088B2, “4-(benzimidazol-2-ylamino)benzamide derivatives and methods of synthesis thereof” (TRANSLATIONAL DRUG DEVELOPMENT, LLC, priority 2009, dated 2020).

Experiments:
SKOV3 cells = experiment: CellTiter-Blue cell viability assay, single agent, 72 hour treatment, SKOV3; format: cell-based; conditions: Homo sapiens, SK-OV-3
Experimental: (§1) Cell viability in the presence of varying concentrations of the above listed compounds at different time points was used to assess cytotoxicity and the effect of the compounds on cell proliferation.
(§2) Cell viability was measured by the CellTiter-Blue® cell viability assay Promega (Madison, Wis.). This procedure measures the conversion of the indicator dye (resazurin) to resorufin, an indicator of cell viability. Following treatment, growth media was removed and cells were incubated with 20 μl of CellTiter-Blue® Reagent and growth media for 1-4 hours at 37° C. Fluorescence values were measured at 535/590 nm using a Beckman-Coulter DTX-880 microplate reader.
(§3) Cells were grown to 70% confluency, trypsinized, counted, and seeded in 96 well flat-bottom plates at a final concentration of 2.5×10^3-5×10^3 cells/well (Day 0). Cells were allowed to incubate in growth media for 24 hours to allow for maximum adhesion. Treatment with the test agents or standard agents began on Day 1 and continued for 72 hours. At the 72 hour timepoint, treatment containing media was removed. Viable cell numbers are quantified by the CellTiter-Blue® cell viability assay as described above. Experiments were repeated at least twice with the same concentrations to determine growth inhibitory activity. Results from these studies were used to calculate an IC50 value (concentration of drug that inhibits cell growth by 50 percent of control) for each compound.
(§4) For single agent and combination studies, data from each experiment was collected and expressed as % Cell Growth using the following calculation: % Cell Growth=(ftest/fvehicle)×100
(§5) Where ftest is the fluorescence of the tested sample, and fvehicle is the fluorescence of the vehicle in which the drug is dissolved. Dose response graphs and IC50 values were generated using Prism 4 software (GraphPad) using the following equation: […]
(§6) Where X is the logarithm of concentration and Y is the response. Y starts at the Bottom and goes to Top with a sigmoid shape.

A2780 cells = experiment: CellTiter-Blue cell viability assay, single agent, 72 hour treatment, A2780; format: cell-based; conditions: Homo sapiens
Experimental: as §1, §2, §3, §4, §5, §6

[1] = test system: A2780 human ovarian cells xenograft; experiment: In vivo efficacy in human ovarian tumor xenograft model; conditions: female Ncr nude mice
Experimental: FIG. 1 depicts in vivo efficacy studies of compound #4 (N-hydroxy-4-(1-(2-methoxyethyl)-1H-benzo[d]imidazol-2-ylamino)benzamide) in A2780 xenograft models.
In vivo efficacy of the disclosed compound was tested through a human ovarian tumor xenograft model. Female Ncr nude mice were inoculated with 1×10^7 A2780 human ovarian cells suspended in a mixture of 50% Matrigel and 50% tissue culture media in a total volume of 100 μl. Four days following inoculation, the mice were pair-matched into four groups of 7-8 mice per group at an average tumor weight of 157 mg per group. Group 1 (G1) was treated with vehicle only daily for 14 days. Group 3 (G3) was treated with Compound ID #4 (T062) at 100 mg/kg daily for 14 days. Group 5 (G5) was treated with Doxil at 3 mg/kg on Day 1 only. Group 6 (G6) was treated with Compound ID #4 (T062) at 50 mg/kg (daily for 14 days) plus Doxil at 3 mg/kg on Day 1 only. Group 7 (G7) was treated with Compound ID #4 (T062) at 100 mg/kg (daily for 14 days) plus Doxil at 3 mg/kg on Day 1 only. Vehicle and Compound ID #4 were administered orally via oral gavage while Doxil was administered intravenously via tail injection. Body weights and tumor measurements were collected twice weekly. Tumor width and length were measured in millimeters and converted to tumor weight (in milligrams) using the formula […]=tumor weight (mg.).

Row | Compound | IC50 (SKOV3 cells) | IC50 (A2780 cells) | In vivo efficacy (tumor weight) versus Doxil as a single agent ([1]; Group 6: Compound ID #4 50 mg/kg oral daily for 14 days plus Doxil 3 mg/kg i.v. on Day 1 only) | In vivo efficacy (tumor weight) versus Doxil as a single agent ([1]; Group 7: Compound ID #4 100 mg/kg oral daily for 14 days plus Doxil 3 mg/kg i.v. on Day 1 only)
1 | CC(C)n1c(Nc2ccc(C(=O)NO)cc2)nc2cc(-c3cncnc3)ccc21 [ID 18, N-hydroxy-4-(1-isopropyl-5-(pyrimidin-5-yl)-1H-benzo[d]imidazol-2-ylamino)benzamide] | 21 µM |  |  | 
2 | CC(C)n1c(Nc2ccc(C(=O)NO)cc2)nc2cc(-c3cccnc3)ccc21 [ID 19, N-hydroxy-4-(1-isopropyl-5-(pyridin-3-yl)-1H-benzo[d]imidazol-2-ylamino)benzamide] | 8.1 µM |  |  | 
3 | CC(C)n1c(Nc2ccc(C(=O)Nc3ccccc3N)cc2)nc2ccccc21 [ID 1, N-(2-aminophenyl)-4-(1-isopropyl-1H-benzo[d]imidazol-2-ylamino)benzamide] | 4.8 µM |  |  | 
4 | O=C(NO)c1ccc(Nc2nc3ccccc3n2CCO)cc1 [ID 11, N-hydroxy-4-(1-(2-hydroxyethyl)-1H-benzo[d]imidazol-2-ylamino)benzamide] | 34 µM | 40 µM |  | 
5 | CN(C)CCn1c(Nc2ccc(C(=O)NO)cc2)nc2cc(Br)ccc21 [ID 17, 4-(5-bromo-1-(2-(dimethylamino)ethyl)-1H-benzo[d]imidazol-2-ylamino)-N-hydroxybenzamide] | 8.2 µM |  |  | 
6 | COCCn1c(Nc2ccc(C(=O)NO)cc2)nc2ccccc21 [ID 4, N-hydroxy-4-(1-(2-methoxyethyl)-1H-benzo[d]imidazol-2-ylamino)benzamide] |  |  | improved efficacy over Group 5 | improved efficacy over Group 5
7 | COCCn1c(Nc2ccc(C(=O)NO)cc2)nc2cc(Br)ccc21 [ID 10, 4-(5-bromo-1-(2-methoxyethyl)-1H-benzo[d]imidazol-2-ylamino)-N-hydroxybenzamide] | 6.9 µM | 4.1 µM |  | 
8 | COCCn1c(Nc2ccc(C(=O)NO)cc2)nc2c(F)cccc21 [ID 22, 4-(4-fluoro-1-(2-methoxyethyl)-1H-benzo[d]imidazol-2-ylamino)-N-hydroxybenzamide] | 17.6 µM | 12.1 µM |  | 

Second part, led by results:

Row | IC50 (SKOV3 cells) | IC50 (A2780 cells) | Compound | In vivo efficacy (tumor weight) versus Doxil as a single agent ([1]; Group 6: Compound ID #4 50 mg/kg oral daily for 14 days plus Doxil 3 mg/kg i.v. on Day 1 only) | In vivo efficacy (tumor weight) versus Doxil as a single agent ([1]; Group 7: Compound ID #4 100 mg/kg oral daily for 14 days plus Doxil 3 mg/kg i.v. on Day 1 only)
9 | 48 µM | 16 µM | COCCn1c(Nc2ccc(C(=O)NO)cc2)nc2cc(-c3cncnc3)ccc21 [ID 15, N-hydroxy-4-(1-(2-methoxyethyl)-5-(pyrimidin-5-yl)-1H-benzo[d]imidazol-2-ylamino)benzamide] |  | 
10 | 0.7 µM | 1.4 µM | COCCn1c(Nc2ccc(C(=O)NO)cc2)nc2cc(F)ccc21 [ID 12, 4-(5-fluoro-1-(2-methoxyethyl)-1H-benzo[d]imidazol-2-ylamino)-N-hydroxybenzamide] |  | 
11 | 0.3 µM | 1.1 µM | COCCn1c(Nc2ccc(C(=O)NO)cc2)nc2cc(-c3cccc(F)c3)ccc21 [ID 14, 4-(5-(3-fluorophenyl)-1-(2-methoxyethyl)-1H-benzo[d]imidazol-2-ylamino)-N-hydroxybenzamide] |  | 
12 | 1.9 µM | 5.1 µM | CC(C)OCCn1c(Nc2ccc(C(=O)NO)cc2)nc2ccccc21 [ID 13, N-hydroxy-4-(1-(2-isopropoxyethyl)-1H-benzo[d]imidazol-2-ylamino)benzamide] |  | 
13 |  | 1.9 µM | COCCCn1c(Nc2ccc(C(=O)NO)cc2)nc2ccccc21 [ID 9, N-hydroxy-4-(1-(3-methoxypropyl)-1H-benzo[d]imidazol-2-ylamino)benzamide] |  | 
14 | 5.8 µM |  | COCCn1c(Nc2ccc(C(=O)Nc3ccccc3N)cc2)nc2ccccc21 [ID 20, N-(2-aminophenyl)-4-(1-(2-methoxyethyl)-1H-benzo[d]imidazol-2-ylamino)benzamide] |  | 
15 | 4.3 µM | 15 µM | COCCn1c(Nc2ccc(C(=O)NO)cc2)nc2cc(C3CC3)ccc21 [ID 16, 4-(5-cyclopropyl-1-(2-methoxyethyl)-1H-benzo[d]imidazol-2-ylamino)-N-hydroxybenzamide] |  | 
16 | 16 µM | 22 µM | COCc1ccc2c(c1)nc(Nc1ccc(C(=O)NO)cc1)n2C(C)C [ID 23, N-hydroxy-4-(1-isopropyl-5-(methoxymethyl)-1H-benzo[d]imidazol-2-ylamino)benzamide] |  | 
17 | 17.7 µM | 12.1 µM | COCCn1c(Nc2ccc(C(=O)NO)cc2)nc2ccc(F)cc21 [ID 21, 4-(6-fluoro-1-(2-methoxyethyl)-1H-benzo[d]imidazol-2-ylamino)-N-hydroxybenzamide] |  | 
